From patent CN113354616A, “二芳基-1,2,4-三唑类化合物及其制法和药物用途” (Institute of Materia Medica of CAMS and PUMC, priority 2020, dated 2021)

Tests used:
[1] = system: hyperuricemic mice (高尿酸血症小鼠); experiment: 实验例2: effect of TAZ-3-16 on lowering blood uric acid in hyperuricemic (HUA) model mice (hypoxanthine plus potassium oxonate, repeated stimulation); type: in vivo; conditions: HUA model ICR mice, intragastric, n=10, compared with model control
[2] = system: acute hyperuricemic mice (急性高尿酸血症小鼠); experiment: 实验例3: effect of TAZ-3-19 on lowering blood uric acid in acute hyperuricemia model mice (hypoxanthine plus potassium oxonate); type: in vivo; conditions: acute hyperuricemia ICR mice, intragastric, n=10, compared with model control

In the case of `Cc1nc(-c2ccc(OCC(C)C)c(C#N)c2)sc1C(=O)O` [非布索坦, reference compound], the “blood uric acid level” value ([1]; 1 mg/kg once daily for 2 days) is reported as “明显降低”.
For `CN1CCN(CCCOc2c(Cl)cc(-c3nc(-c4ccncc4)n[nH]3)cc2Cl)CC1` [TAZ-3-19], the “decrease of peak blood uric acid” value ([2]; 0.625 mg/kg) was 5.7%, the “decrease of peak blood uric acid” value ([2]; 1.25 mg/kg) was 34.2% and the “decrease of peak blood uric acid” value ([2]; 2.5 mg/kg) was 68.0%.
For `Clc1cc(-c2nc(-c3ccncc3)n[nH]2)cc(Cl)c1OCCCN1CCCCC1` [TAZ-3-16], the “blood uric acid level” value ([1]; 0.5 mg/kg once daily for 2 days) was “明显降低”.
